Reference: PMC539285, “Anti-Plasmodium activity of ceramide analogs” (Malaria Journal, 2004)
Where two headings read alike, the source gives them in different places.

Experiments:
[1] = tested on: chloroquine-resistant strain FcB1 of P. falciparum; experiment: Anti-Plasmodium activity, [3H]hypoxanthine microdilution on asynchronous cultures; assay type: cell-based, Plasmodium falciparum; details: for IC90 / IC50: Plasmodium falciparum; for IC90: 48 h, 90% growth inhibition, read-out: CI90 (the source's name)
Method: P. falciparum strains (FcB1/Colombia, K1/Thailand, F32/Tanzania, W2/Indochina) were maintained in continuous culture on human erythrocytes in RPMI medium containing 7% (v/v) heat-inactivated human serum under an atmosphere of 3% CO2, 6% O2, 91% N2, at 37°C, as described by Trager and Jensen. Parasite synchronization was performed successively by treatment with 5% (w/v) sorbitol and by concentration in gelatin solution as previously described.
Drug susceptibility assays were performed using a modification of the semi automated microdilution technique of Desjardins et al.. Stock solutions of test compounds were prepared in DMSO. Drug solutions were serially diluted twofold with 100 μl culture medium in 96-well plates. Asynchronous parasite cultures (100 μl, 1 % parasitemia and 1 % final hematocrite) were added to each well and incubated for 24 hours at 37°C prior to the addition of 0.5 μCi of [^3H] hypoxanthine (Amersham, France, 1 to 5 Ci.mmol/ml) per well. After a further incubation of 24 hour, plates were frozen and thawed. Cell lysates were then collected onto glass-filter papers and counted in a liquid scintillation spectrometer. The growth inhibition for each drug concentration was determined by comparison of the radioactivity incorporated in the treated culture with that in the control culture (having the same final % of DMSO) maintained on the same plate. The concentration causing 50% growth inhibition (IC50) and 90% growth (IC90) were obtained from the drug concentration-response curve and the results were expressed as the means ± the standard deviations determined from several independent experiments.

[2] = Cytotoxicity test upon human embryonic cells (MTT); assay type: cell-based; details: human, MRC-5 human diploid embryonic lung cells; MRC-5, five days, MTT; mean of three experiments
Method: (§1) A human diploid embryonic lung cell line (MRC-5, Bio-Whittaker 72211D) was used to assess the cytotoxic effects towards eukaryotic host cells. MRC-5 cells were seeded at 5,000 cells per well in 100 μl. After 24 hours, the cells were washed and two-fold dilutions of the drug were added in 200 μl standard culture medium (RPMI medium + 5% fetal calf serum) and maintained for five days under 5% CO2 atmosphere. The final DMSO concentration in the culture remained below 0.1%. Untreated cultures were included as controls. The cytotoxicity was determined using the colorimetric MTT assay according to the manufacturer's recommendations (Cell proliferation kit I, Roche Applied Science, France) and scored as a percentage of reduction in absorption at 540 nm of treated cultures versus untreated control cultures. […] The results were expressed as the mean ± the standard deviations determined from several independent experiments. The index of selectivity was defined as the ratio of the IC50 value on MRC-5 to that of P. falciparum.

human MRC-5 cells = experiment: Cytotoxicity test upon human embryonic cells (MTT); assay type: cell-based; details: for IC50: Homo sapiens, MRC5, 120 h, MRC-5, five days, MTT, mean of three experiments; for Index of selectivity: ratio of the IC50 value on MRC-5 cells to that on P. falciparum
Method: as §1

[3] = tested on: P. falciparum synchronized cultures; experiment: Parasite stage-specific inhibitory effects and reversibility (Giemsa-stained smears); assay type: cell-based, Plasmodium falciparum; details: trophozoite stage, 250 nM (data not shown)
Method: Synchronized cultures (1–2% parasitemia) at the ring stage (0–10 hours old parasites), the trophozoite stage (25–35 hours old parasites) and the schizonte stage (40–48 hours old parasites) were maintained in the presence of drug concentrations in the vicinity of IC50 values. Aliquots were removed at the indicated times, washed three times with culture medium and maintained in culture in the absence or in the presence of a given drug. […] Parasitaemias were determined by counting 3,000 cells for each sample. Controls consisted of parasites incubated with DMSO instead of drugs processed in the same way.
To investigate the cytostatic or cytotoxic effects of AD2646 on the parasite development, cultures at the ring stage (0–10 hours), the trophozoite stage (25–35 hours) and the schizonte stage (40–48 hours) were incubated with 30, 100 or 250 nM of AD2646 for 24.5 hours for the ring stage, for 11 hours for the trophozoite stage, and for 14 hours for the schizonte stage. Aliquots were then taken, washed and incubated in the absence or the presence of drug for a further 13 hours to 24 hours depending upon the parasite stage tested (see Figure 5). Parasitaemia and parasite stages were determined on Giemsa-stained smears at time of aliquot removal and after the subsequent incubation.

[4] = Figure 2, series A (amide linkage), strain FcB1
[5] = Figure 2, series A (amide linkage), strain FcB1, read-out: CI50 (the source's name)
[6] = FCB1, Figure 4, selected derivatives, read-out: IC50
[7] = Figure 3, series B, strain FcB1
[8] = Figure 3, series B (methylene or thiourea linkage), strain FcB1, read-out: CI50 (the source's name)

Row | IC50 [1, 5] | IC50 [1, 8] | Structure (SMILES) | IC90 [1, 4] | IC90 [1, 7] | further results
1 | 13.1 µM | – | CCCCCCCC(=O)N[C@H](CO)[C@H](O)c1ccc([N+](=O)[O-])cc1 [AD2494] | 70 µM | – | –
2 | – | – | CCCCCCCCCCCCCCN[C@H](C)[C@H](O)c1ccccc1 [AD-2724] | – | – | IC50 [1, 6]: 0.0334 ± 0.0031 µM
3 | – | – | CCCCCCCCCCCCCCNC(CO)Cc1ccccc1 (centres unmarked) [AD2729] | – | – | reduction of anti-Plasmodium activity by removal of the carbon 3 hydroxyl group ([1]; AD2729 compared with AD2730): 13.5 times; IC50 [1, 6]: 0.258 ± 0.0107 µM; IC90 at 5 days [2]: 9.8 µM; IC50 (human MRC-5 cells): 5.8 µM; Index of selectivity (human MRC-5 cells): 22
4 | 16.5 ± 6.5 µM | – | CCCCCCCCCCCC(=O)N[C@H](CO)[C@H](O)c1ccc([N+](=O)[O-])cc1 [AD2552] | 36.3 ± 16.1 µM | – | –
5 | – | 3.3 µM | CCCCCCCCCCCCCCN[C@H](CO)[C@H](O)c1ccc(NC(=O)CCCCC)cc1 [AD-2680] | – | 5.5 µM | –
6 | – | 5.8 µM | CCCCCCCCCCCCCCN[C@H](CO)[C@H](O)c1ccc(NC(C)=O)cc1 [AD-2678] | – | 10.6 µM | –
7 | 26.8 µM | – | CCCC(=O)N[C@H](CO)[C@H](O)c1ccc([N+](=O)[O-])cc1 [AD2583] | 67.4 µM | – | –
8 | – | 0.0171 ± 0.0053 µM | CCCCCCCCCCCCN[C@H](CO)[C@H](O)c1ccc([N+](=O)[O-])cc1 [AD-2617] | – | 0.304 ± 0.007 µM | –
9 | – | 0.0379 ± 0.0021 µM | CCCCCCCCCCCCCCN[C@@H](CO)[C@@H](O)c1ccc([N+](=O)[O-])cc1 [AD2645] | – | 0.104 ± 0.001 µM | IC90 at 5 days [2]: 10.3 µM; IC50 (human MRC-5 cells): 6.1 µM; Index of selectivity (human MRC-5 cells): 161
10 | > 100 µM | – | CCCC(=O)Nc1ccc([C@@H](O)[C@@H](CO)NC(=O)CCC)cc1 [AD2607] | – | – | –
11 | 18.7 ± 6.5 µM | – | CCCCCCCCCCCCCC(=O)N[C@@H](CO)[C@@H](O)c1ccc([N+](=O)[O-])cc1 [AD2560] | 36 ± 18.2 µM | – | –
12 | 4.9 µM | – | CCCCCCCCCCCC(=O)Nc1ccc([C@@H](O)[C@H](N)CO)cc1 [AD2648] | 9.6 µM | – | –
13 | – | > 33 µM | CCN[C@H](CO)[C@H](O)c1ccc([N+](=O)[O-])cc1 [AD-2212] | – | – | –
14 | 64.1 µM | – | CCCCCCCC(=O)N[C@@H](CO)[C@@H](O)c1ccc([N+](=O)[O-])cc1 [AD2550] | > 100 µM | – | –
15 | – | 3.25 µM | CCCCCCCCCCCCNc1ccc([C@@H](O)[C@@H](CO)NCCCCCCCCCCCC)cc1 [AD-2653] | – | 5.5 µM | –
16 | 70.1 µM | – | CCCCCCCC(=O)Nc1ccc([C@@H](O)[C@@H](CO)NC(=O)CCC)cc1 [AD2603] | > 100 µM | – | –
17 | – | 0.0428 ± 0.0085 µM | CCCCCCCCCCCCCCCCN[C@H](CO)[C@H](O)c1ccc([N+](=O)[O-])cc1 [AD2619] | – | 0.073 ± 0.005 µM | IC90 at 5 days [2]: 42.3 µM; IC50 (human MRC-5 cells): 26.7 µM; Index of selectivity (human MRC-5 cells): 624
18 | > 100 µM | – | CC(=O)N[C@H](CO)[C@H](O)c1ccc([N+](=O)[O-])cc1 [AD2590] | – | – | –
19 | – | 0.574 ± 0.05 µM | CC(C)(C)NC(=S)N[C@H](CO)[C@H](O)c1ccc([N+](=O)[O-])cc1 [AD-2217] | – | 0.958 ± 0.013 µM | –
20 | 70 µM | – | CCCCCCCCCCCC(=O)Nc1ccc([C@@H](O)[C@@H](CO)NC(=O)CCC)cc1 [AD2604] | > 100 µM | – | –

Row | IC50 [1, 5] | IC50 [1, 8] | Structure (SMILES) | IC90 [1, 4] | IC90 [1, 7] | further results
21 | 40.4 µM | – | CCCCCCCCCCCCCCCC(=O)N[C@H](CO)[C@H](O)c1ccc(N)cc1 [AD2623] | 81.3 µM | – | –
22 | – | 1.3 ± 0.2 µM | CCCCNc1ccc([C@@H](O)[C@@H](CO)NCCCC)cc1 [AD-2664] | – | 2.4 ± 0.7 µM | –
23 | 17.2 ± 5.5 µM | – | CCCCCCCCCCCCCC(=O)N[C@H](CO)[C@H](O)c1ccc([N+](=O)[O-])cc1 [AD2557] | 37.8 ± 15.3 µM | – | –
24 | > 100 µM | – | CCCCCCCCCCCCCCCC(=O)Nc1ccc([C@@H](O)[C@@H](CO)NC(=O)CCC)cc1 [AD2605] | – | – | –
25 | – | > 200 µM | CCCCCCCCCCCCCCCCCCCCN[C@H](CO)[C@H](O)c1ccc([N+](=O)[O-])cc1 [AD-2554] | – | – | –
26 | – | 1.7 ± 0.2 µM | CCCCCCCCCCCCCCN[C@H](CO)[C@H](O)c1ccc(N)cc1 [AD2672] | – | 2.6 ± 0.65 µM | IC90 at 5 days [2]: 5.9 µM; IC50 (human MRC-5 cells): 3.7 µM; Index of selectivity (human MRC-5 cells): 2
27 | – | – | CCCCCCCCCCCCCCN[C@H](CO)[C@H](O)c1ccccc1 [AD2730] | – | – | IC50 [1, 6]: 0.0189 ± 0.0017 µM; IC90 at 5 days [2]: 9.9 µM; IC50 (human MRC-5 cells): 6.1 µM; Index of selectivity (human MRC-5 cells): 322
28 | – | 0.0337 ± 0.0037 µM | CCCCCCCCNc1ccc([C@@H](O)[C@@H](CO)NCCCCCCCC)cc1 [AD2670] | – | 0.069 ± 0.003 µM | parasite development, trophozoite stage [3]: complete inhibition of parasite development
29 | – | 0.0857 ± 0.0232 µM | CCCCCCNc1ccc([C@@H](O)[C@@H](CO)NCCCCCC)cc1 [AD2651] | – | 0.135 ± 0.019 µM | parasite development, trophozoite stage [3]: complete inhibition of parasite development
30 | – | – | CCN(CC)CCCC(C)Nc1ccnc2cc(Cl)ccc12 (centres unmarked) [chloroquine, reference compound] | – | – | IC50 ([1]; FCB1): 0.115 ± 0.025 µM
31 | 10.8 ± 2.3 µM | – | CCCCCCCCCCCCCCCC(=O)N[C@H](CO)[C@H](O)c1ccc([N+](=O)[O-])cc1 [AD2495] | 20.3 ± 1.4 µM | – | –
32 | > 100 µM | – | CCCC(=O)N[C@H](CO)[C@H](O)c1ccc(NC(=O)CCC(=O)O)cc1 [AD2606] | – | – | –
33 | > 100 µM | – | O=C(CCCO)N[C@H](CO)[C@H](O)c1ccc([N+](=O)[O-])cc1 [AD2589] | – | – | –
34 | – | 1.13 ± 0.24 µM | CCCCNC(=S)N[C@H](CO)[C@H](O)c1ccc([N+](=O)[O-])cc1 [AD-2216] | – | 13.9 ± 7.1 µM | –
35 | 34.3 µM | – | CCCCCCCCCCCCCCCCCC(=O)N[C@H](CO)[C@H](O)c1ccc([N+](=O)[O-])cc1 [AD2558] | > 50 µM | – | –
36 | > 100 µM | – | CCCC(=O)N[C@@H](CO)[C@@H](O)c1ccc([N+](=O)[O-])cc1 [AD2549] | – | – | –
37 | – | 0.78 ± 0.07 µM | CCCCN[C@H](CO)[C@H](O)c1ccc([N+](=O)[O-])cc1 [AD-2493] | – | 5.1 ± 0.15 µM | –
38 | – | > 50 µM | CCNC(=S)N[C@H](CO)[C@H](O)c1ccc([N+](=O)[O-])cc1 [AD-2215] | – | – | –
39 | – | 1.48 µM | CCCCCCCCCCCCCCN[C@H](CO)[C@H](O)c1ccc(NCC)cc1 [AD-2677] | – | 2.7 µM | –
